Each structure is given as a SMILES string.

Common to all, as to assay type: functional
One experiment deals with Penicillium cyclopium. The experiment can be described thus: Fungicidal activity against Penicillium verrucosum var. cyclopium food isolate by microdilution method.
In the next experiment the test system is Penicillium ochrochloron. As to the kind of experiment: Fungicidal activity against Penicillium ochrochloron ATCC 9112 by microdilution method.
For a further experiment, the system named is Talaromyces funiculosus. The experiment can be described thus: Fungicidal activity against Penicillium funiculosum ATCC 36839 by microdilution method.
In another experiment the test system is Trichoderma viride. The experiment can be described thus: Fungicidal activity against Trichoderma viride IAM 5061 by microdilution method. In general terms: Broth dilution looks for growth in wells or tubes with falling amounts of substance.
The subject of another experiment is Aspergillus fumigatus. The experiment can be described thus: Fungicidal activity against Aspergillus fumigatus ATCC 1022 by microdilution method.
The next experiment concerns Aspergillus versicolor. As to the kind of experiment: Fungicidal activity against Aspergillus versicolor ATCC 11730 by microdilution method.
A further experiment deals with Aspergillus niger. The experiment can be described thus: Fungicidal activity against Aspergillus niger by microdilution method.
Another experiment has as its system Aspergillus ochraceus. As to the kind of experiment: Fungicidal activity against Aspergillus ochraceus by microdilution method.

`CC(=O)c1c(O)c(C)c(O)c2c1OC1=CC(=O)/C(=C(/C)NCCn3c(=O)c(O)nc4ccccc43)C(=O)[C@@]12C`: the MFC in the experiment with Penicillium cyclopium was determined as 7.28 ×10⁻² mmol/ml; in the experiment on Penicillium ochrochloron, 3.64 ×10⁻² mmol/ml; in the experiment with Talaromyces funiculosus, 3.64 ×10⁻² mmol/ml; against Trichoderma viride, 1.82 ×10⁻² mmol/ml; in the experiment on Aspergillus fumigatus, 3.64 ×10⁻² mmol/ml; against Aspergillus versicolor, 3.64 ×10⁻² mmol/ml. Besides, the MFC against Aspergillus niger is listed as 3.64 ×10⁻² mmol/ml; in the experiment on Aspergillus ochraceus, 1.82 ×10⁻² mmol/ml.
With `CC(=O)c1c(O)c(C)c(O)c2c1OC1=CC(=O)/C(=C(/C)NCc3nc(N)n[nH]3)C(=O)[C@@]12C`, the MFC was determined as 8.82 ×10⁻² mmol/ml with Penicillium cyclopium; 4.41 ×10⁻² mmol/ml with Penicillium ochrochloron; 4.41 ×10⁻² mmol/ml against Talaromyces funiculosus; 8.82 ×10⁻² mmol/ml in the experiment on Trichoderma viride; 4.41 ×10⁻² mmol/ml in the experiment with Aspergillus fumigatus; 4.41 ×10⁻² mmol/ml in the experiment with Aspergillus versicolor. The values for the MFC against Aspergillus niger and against Aspergillus ochraceus were 4.41 ×10⁻² mmol/ml and 8.82 ×10⁻² mmol/ml, respectively.
Regarding `CC(=O)c1c(O)c(C)c(O)c2c1OC1=CC(=O)/C(=C(/C)NCCc3nnc(-c4ccccc4O)o3)C(=O)[C@@]12C`, the MFC with Penicillium cyclopium is reported as 3.01 ×10⁻² mmol/ml; against Penicillium ochrochloron, 3.01 ×10⁻² mmol/ml; with Talaromyces funiculosus it was 3.01 ×10⁻² mmol/ml; in the experiment on Trichoderma viride, 1.51 ×10⁻² mmol/ml; with Aspergillus fumigatus, 3.01 ×10⁻² mmol/ml; against Aspergillus versicolor, 3.01 ×10⁻² mmol/ml. Also, the MFC turned out to be 6.02 ×10⁻² mmol/ml in the experiment with Aspergillus niger and 1.51 ×10⁻² mmol/ml against Aspergillus ochraceus.
On to `CC(=O)c1c(O)c(C)c(O)c2c1OC1=CC(=O)/C(=C(/C)NCCS(N)(=O)=O)C(=O)[C@@]12C`, for which the MFC in the experiment with Penicillium cyclopium is recorded as 7.1 ×10⁻² mmol/ml; against Penicillium ochrochloron, 7.1 ×10⁻² mmol/ml; in the experiment with Talaromyces funiculosus, 7.1 ×10⁻² mmol/ml; with Trichoderma viride, 3.55 ×10⁻² mmol/ml; in the experiment with Aspergillus fumigatus, 7.1 ×10⁻² mmol/ml; in the experiment with Aspergillus versicolor it was 7.1 ×10⁻² mmol/ml. Also, the MFC turned out to be 7.1 ×10⁻² mmol/ml against Aspergillus niger and 3.55 ×10⁻² mmol/ml with Aspergillus ochraceus.
Regarding `CC(=O)c1c(O)c(C)c(O)c2c1OC1=CC(=O)/C(=C(/C)NCC(=O)Nc3nccs3)C(=O)[C@@]12C`, the MFC with Penicillium cyclopium, in the experiment with Penicillium ochrochloron, against Talaromyces funiculosus, in the experiment on Trichoderma viride, in the experiment on Aspergillus fumigatus and in the experiment with Aspergillus versicolor was 3.72 ×10⁻² mmol/ml each time. Besides, the MFC against Aspergillus niger and against Aspergillus ochraceus was 1.86 ×10⁻² mmol/ml throughout.
Take `CC(=O)C1=C(O)C=C2Oc3c(C(C)=O)c(O)c(C)c(O)c3C2(C)C1=O` (stereo not given): the MFC worked out at 8.8 ×10⁻² mmol/ml against Penicillium cyclopium; 8.8 ×10⁻² mmol/ml in the experiment with Penicillium ochrochloron; 8.8 ×10⁻² mmol/ml against Talaromyces funiculosus; 4.4 ×10⁻² mmol/ml against Trichoderma viride; 69.8 ×10⁻² mmol/ml in the experiment with Aspergillus fumigatus; 8.8 ×10⁻² mmol/ml in the experiment with Aspergillus versicolor. The MFC is 8.8 ×10⁻² mmol/ml in the experiment with Aspergillus niger and 4.4 ×10⁻² mmol/ml in the experiment on Aspergillus ochraceus.
For the compound `CC(=O)N1CCN(c2ccc(OCC3COC(Cn4ccnc4)(c4ccc(Cl)cc4Cl)O3)cc2)CC1` (stereo not given) [KETOCONAZOLE], the MFC was 94 ×10⁻² mmol/ml against Penicillium cyclopium; 380 ×10⁻² mmol/ml against Penicillium ochrochloron; 95 ×10⁻² mmol/ml in the experiment with Talaromyces funiculosus; 570 ×10⁻² mmol/ml with Trichoderma viride; 95 ×10⁻² mmol/ml against Aspergillus fumigatus; 380 ×10⁻² mmol/ml with Aspergillus versicolor. The MFC with Aspergillus niger and against Aspergillus ochraceus was 95 ×10⁻² mmol/ml in each case.
Regarding `COCCc1noc(CCN/C(C)=C2\C(=O)C=C3Oc4c(C(C)=O)c(O)c(C)c(O)c4[C@@]3(C)C2=O)n1`, the MFC worked out at 4.02 ×10⁻² mmol/ml against Penicillium cyclopium; 4.02 ×10⁻² mmol/ml with Penicillium ochrochloron; 4.02 ×10⁻² mmol/ml in the experiment with Talaromyces funiculosus; 2.01 ×10⁻² mmol/ml with Trichoderma viride; 4.02 ×10⁻² mmol/ml against Aspergillus fumigatus; 4.02 ×10⁻² mmol/ml against Aspergillus versicolor. Also, the results for the MFC in the experiment with Aspergillus niger and in the experiment on Aspergillus ochraceus were 4.02 ×10⁻² mmol/ml and 2.01 ×10⁻² mmol/ml, respectively.
As to `c1ccc(-c2ccc(C(c3ccccc3)n3ccnc3)cc2)cc1` (stereo not given) [BIFONAZOLE], the MFC came to 48 ×10⁻² mmol/ml with Penicillium cyclopium; 64 ×10⁻² mmol/ml with Penicillium ochrochloron; 80 ×10⁻² mmol/ml in the experiment with Talaromyces funiculosus; 80 ×10⁻² mmol/ml against Trichoderma viride; 64 ×10⁻² mmol/ml with Aspergillus fumigatus; 64 ×10⁻² mmol/ml with Aspergillus versicolor. Also, the MFC against Aspergillus niger was determined as 64 ×10⁻² mmol/ml; with Aspergillus ochraceus, 80 ×10⁻² mmol/ml.
Consider `CC(=O)NCCN/C(C)=C1\C(=O)C=C2Oc3c(C(C)=O)c(O)c(C)c(O)c3[C@@]2(C)C1=O`, for which the MFC against Penicillium cyclopium is listed as 15.05 ×10⁻² mmol/ml; in the experiment on Penicillium ochrochloron, 7.53 ×10⁻² mmol/ml; in the experiment with Talaromyces funiculosus it was 7.53 ×10⁻² mmol/ml; in the experiment on Trichoderma viride, 15.05 ×10⁻² mmol/ml; against Aspergillus fumigatus it was 7.53 ×10⁻² mmol/ml; against Aspergillus versicolor, 7.53 ×10⁻² mmol/ml. The MFC in the experiment with Aspergillus niger and in the experiment with Aspergillus ochraceus was 15.05 ×10⁻² mmol/ml throughout.
`CC(=O)c1c(O)c(C)c(O)c2c1OC1=CC(=O)/C(=C(/C)NCC(=O)NC(CO)C(=O)O)C(=O)[C@@]12C` (stereo not given in full): the MFC in the experiment on Penicillium cyclopium is on record as 3.69 ×10⁻² mmol/ml; against Penicillium ochrochloron, 3.69 ×10⁻² mmol/ml; in the experiment with Talaromyces funiculosus it was 3.69 ×10⁻² mmol/ml; against Trichoderma viride, 1.84 ×10⁻² mmol/ml; against Aspergillus fumigatus, 3.69 ×10⁻² mmol/ml; with Aspergillus versicolor it was 3.69 ×10⁻² mmol/ml. Besides, the MFC with Aspergillus niger and against Aspergillus ochraceus was 3.69 ×10⁻² mmol/ml in each case.
For the compound `CC(=O)c1c(O)c(C)c(O)c2c1OC1=CC(=O)/C(=C(/C)NCc3noc(C4CCC(=O)N4)n3)C(=O)[C@@]12C` (stereo not given in full), the MFC against Penicillium cyclopium worked out at 3.54 ×10⁻² mmol/ml; with Penicillium ochrochloron it was 1.77 ×10⁻² mmol/ml; against Talaromyces funiculosus, 1.77 ×10⁻² mmol/ml; against Trichoderma viride, 1.77 ×10⁻² mmol/ml; in the experiment with Aspergillus fumigatus, 3.54 ×10⁻² mmol/ml; with Aspergillus versicolor, 3.54 ×10⁻² mmol/ml. The MFC against Aspergillus niger and against Aspergillus ochraceus was 3.54 ×10⁻² mmol/ml each time.
As for `CC(=O)c1c(O)c(C)c(O)c2c1OC1=CC(=O)/C(=C(/C)NCCc3ccc(O)c(O)c3)C(=O)[C@@]12C`, the MFC in the experiment on Penicillium cyclopium is 4.17 ×10⁻² mmol/ml; with Penicillium ochrochloron, 4.17 ×10⁻² mmol/ml; with Talaromyces funiculosus it was 4.17 ×10⁻² mmol/ml; in the experiment on Trichoderma viride it was 2.09 ×10⁻² mmol/ml; with Aspergillus fumigatus, 4.17 ×10⁻² mmol/ml; in the experiment with Aspergillus versicolor, 4.17 ×10⁻² mmol/ml. The results for the MFC against Aspergillus niger and in the experiment with Aspergillus ochraceus were 8.34 ×10⁻² mmol/ml and 2.09 ×10⁻² mmol/ml, respectively.
In the case of `CC(=O)c1c(O)c(C)c(O)c2c1OC1=CC(=O)/C(=C(/C)NCCc3nc(C)no3)C(=O)[C@@]12C`, the MFC is 3.73 ×10⁻² mmol/ml with Penicillium cyclopium; 3.73 ×10⁻² mmol/ml in the experiment on Penicillium ochrochloron; 3.73 ×10⁻² mmol/ml with Talaromyces funiculosus; 1.87 ×10⁻² mmol/ml in the experiment on Trichoderma viride; 3.73 ×10⁻² mmol/ml in the experiment with Aspergillus fumigatus; 3.73 ×10⁻² mmol/ml in the experiment with Aspergillus versicolor. Further, the MFC amounted to 3.73 ×10⁻² mmol/ml in the experiment on Aspergillus niger and 1.87 ×10⁻² mmol/ml against Aspergillus ochraceus.
With `COc1ccc2nc(NC(=O)CN/C(C)=C3\C(=O)C=C4Oc5c(C(C)=O)c(O)c(C)c(O)c5[C@@]4(C)C3=O)sc2c1`, the MFC came to 14.95 ×10⁻² mmol/ml against Penicillium cyclopium; 14.95 ×10⁻² mmol/ml in the experiment with Penicillium ochrochloron; 14.95 ×10⁻² mmol/ml in the experiment on Talaromyces funiculosus; 1.77 ×10⁻² mmol/ml in the experiment on Trichoderma viride; 14.95 ×10⁻² mmol/ml in the experiment on Aspergillus fumigatus; 7.1 ×10⁻² mmol/ml against Aspergillus versicolor. Further, the MFC against Aspergillus niger and in the experiment on Aspergillus ochraceus was 14.95 ×10⁻² mmol/ml in each case.

The values above are taken from ChEMBL document CHEMBL4257506, “Design, synthesis and antimicrobial activity of usnic acid derivatives” (2018).
